According to publication PMC6132687, “Stem cells are the most sensitive screening tool to identify toxicity of GATA4-targeted novel small-molecule compounds” (Archives of Toxicology, 2018):

Assays:
[1] = tested on: GATA4–NKX2-5 transcriptional synergy; assay: Luciferase reporter assay of GATA4–NKX2-5 synergistic gene activation in COS-1 cells; assay type: cell-based, African green monkey; details: 24 h treatment, normalized to DMSO
Protocol: COS-1 cells were used to investigate the compound effects on GATA4–NKX2-5 synergistic gene activation using a luciferase reporter assay (Kinnunen et al. [2015]). Toxicity profiling was carried out in eight cell types: the H9c2 myoblast cell line, NRVCs, CFs, mESCs, MEFs, mESC derivatives from day 5 embryoid bodies (D5EBs), hiPSCs and hiPSC-CMs. All cell cultures were maintained at 37 °C in a humidified atmosphere of 5% carbon dioxide (CO2) and the regular growth medium was used for compound exposures. Cell culture methods and cardiomyocyte differentiation from human pluripotent stem cells are described in Supplementary Information.
The empty expression plasmid MT2 (pMT2) and mouse Gata4 expressing pMT2-Gata4 plasmids were gifts from D. B. Wilson (Department of Pediatrics, St. Louis Children’s Hospital) (Arceci et al. [1993]). The luciferase reporter plasmid pGL3-3xHA containing three Nkx2-5 high-affinity binding sites has been described previously (Kinnunen et al. [2015]). To create mouse Nkx2-5 expressing pMT2-Nkx2-5, the cDNA was cloned from pFLCI-Nkx2-5 (clone D330001C20, Imagenes), which was a kind gift from R. Kerkelä (University of Oulu, Finland), with primers containing the EcoRI restriction site (forward: 5′-[…]-3′ and reverse 5′-[…]-3′) and ligated to pMT2 EcoRI site. The correct clone was identified by digestion with specific restriction enzymes and the sequence was verified by DNA sequencing (DNA Sequencing and Genomics Laboratory, Institute of Biotechnology, University of Helsinki, Finland).
COS-1 cells grown on 96-well plates were transfected with the luciferase reporter plasmid pGL3-3xHA (100 ng/well) and equal amounts of expression vectors pMT2-Gata4 and pMT2-Nkx2-5 (total of 50 ng/well) using Fugene 6 (Promega) at a reagent:DNA ratio of 3:1. Cells transfected with either pMT2, pMT2-Gata4 or pMT2-Nkx2-5 were used to confirm synergistic transactivation of the reporter gene in all experiments. After 6 h of transfection, the cells were treated with compounds or vehicle (0.1% dimethyl sulfoxide, DMSO) and the luminescence was measured 24 h later using Neolite Reporter Gene Assay System (PerkinElmer, Turku, Finland) according to manufacturer’s instructions and Victor2 plate reader (PerkinElmer, Turku, Finland). Each compound was tested in three technical replicates in at least two independent experiments.
A luciferase reporter assay with an artificial promoter containing three high-affinity binding sites for NKX2-5 was used to evaluate the effects of the compounds on GATA4–NKX2-5 transcriptional synergy (Kinnunen et al. [2015]). We have previously shown that while GATA4 alone induces only minimal activation of this promoter, it strongly potentiates NKX2-5-mediated transactivation (Kinnunen et al. [2015]; Välimäki et al. [2017]).

[2] = tested on: stem cell and progenitor cell viability; assay: Toxicity classification from MTT screening across cell types; details: based on effects on stem cell and progenitor cell viability
Protocol: The cells were exposed to the test compounds for 24 h and cytotoxicity was quantified with MTT and LDH assays as described previously (Talman et al. [2011]). For the determination of cell membrane integrity, 50 µl of medium from each well was transferred onto a new 96-well plate followed by addition of 50 µl of substrate solution containing 1.3 mM β-nicotinamide adenine dinucleotide, 660 µM iodonitrotetrazolium, 54 mM L(+)-lactic acid, 280 µM phenazine methosulphate and 0.2 M Tris–HCl (pH 8.0). After a 30-min incubation, the reaction was stopped by adding 50 µl of 1 M acetic acid to each well and absorbance was measured at 490 nm using Victor2 plate reader (PerkinElmer, Turku, Finland). Spontaneous LDH release was measured from untreated cells, maximal LDH release from cells lysed with 0.9% Triton X-100 and background absorbance was measured from wells without cells. After background extraction, cytotoxicity was calculated as follows: cytotoxicity (%) = [(sample − spontaneous LDH release)/(maximal LDH release − spontaneous LDH release)] × 100. For quantification of metabolic activity, 3-(4,5-dimethylthiazol-2-yl)-2,5-diphenyltetrazolium bromide (MTT) was added to the cells at a final concentration of 0.5 mg/ml followed by 2 h incubation in cell culture conditions. The medium was then aspirated and formazan crystals were solubilized in DMSO. Absorbance was measured at 550 nm and absorbance at 650 nm was subtracted as background.
When comparing the effects of different compounds within each individual cell type, the compounds can be grouped into two main classes: toxic (3i-1000, 3i-1120, 3i-1148 and 3i-1229) and non-toxic (3i-1047, 3i-1051, 3i-1165, and 3i-1228) compounds. Based on the hiPSC toxicity data, 3i-1148 can be considered as the most toxic compound with an IC50 of 0.30 µM (Fig. 5b).

Compound | effect on GATA4- and NKX2-5-induced gene activation (luciferase reporter activity) [1] | toxicity class (toxic / non-toxic) [2]
CCN(CC)c1ccc(NC(=O)c2ccsc2)cc1 [3i-1051] | ineffective | non-toxic
CCN(CC)c1ccc(NC(=O)c2c(-n3cccc3)sc(C)c2C)cc1 [3i-1165] | only a weak effect | non-toxic
CCN(CC)c1ccc(NC(=O)c2c(-c3coc(C)n3)noc2C)cc1 [3i-1228] | ineffective | non-toxic
